% of control, % of inhibition and dTM data for 7 compounds are collected here from ChEMBL document CHEMBL5465560, “Selectivity Literature for EUbOPEN Chemogenomic Library” (2024).

The target in test [1] is T1, Serine/threonine-protein kinase Nek1 (Homo sapiens) (UniProt Q96PY6).
T1 sequence (whole entry): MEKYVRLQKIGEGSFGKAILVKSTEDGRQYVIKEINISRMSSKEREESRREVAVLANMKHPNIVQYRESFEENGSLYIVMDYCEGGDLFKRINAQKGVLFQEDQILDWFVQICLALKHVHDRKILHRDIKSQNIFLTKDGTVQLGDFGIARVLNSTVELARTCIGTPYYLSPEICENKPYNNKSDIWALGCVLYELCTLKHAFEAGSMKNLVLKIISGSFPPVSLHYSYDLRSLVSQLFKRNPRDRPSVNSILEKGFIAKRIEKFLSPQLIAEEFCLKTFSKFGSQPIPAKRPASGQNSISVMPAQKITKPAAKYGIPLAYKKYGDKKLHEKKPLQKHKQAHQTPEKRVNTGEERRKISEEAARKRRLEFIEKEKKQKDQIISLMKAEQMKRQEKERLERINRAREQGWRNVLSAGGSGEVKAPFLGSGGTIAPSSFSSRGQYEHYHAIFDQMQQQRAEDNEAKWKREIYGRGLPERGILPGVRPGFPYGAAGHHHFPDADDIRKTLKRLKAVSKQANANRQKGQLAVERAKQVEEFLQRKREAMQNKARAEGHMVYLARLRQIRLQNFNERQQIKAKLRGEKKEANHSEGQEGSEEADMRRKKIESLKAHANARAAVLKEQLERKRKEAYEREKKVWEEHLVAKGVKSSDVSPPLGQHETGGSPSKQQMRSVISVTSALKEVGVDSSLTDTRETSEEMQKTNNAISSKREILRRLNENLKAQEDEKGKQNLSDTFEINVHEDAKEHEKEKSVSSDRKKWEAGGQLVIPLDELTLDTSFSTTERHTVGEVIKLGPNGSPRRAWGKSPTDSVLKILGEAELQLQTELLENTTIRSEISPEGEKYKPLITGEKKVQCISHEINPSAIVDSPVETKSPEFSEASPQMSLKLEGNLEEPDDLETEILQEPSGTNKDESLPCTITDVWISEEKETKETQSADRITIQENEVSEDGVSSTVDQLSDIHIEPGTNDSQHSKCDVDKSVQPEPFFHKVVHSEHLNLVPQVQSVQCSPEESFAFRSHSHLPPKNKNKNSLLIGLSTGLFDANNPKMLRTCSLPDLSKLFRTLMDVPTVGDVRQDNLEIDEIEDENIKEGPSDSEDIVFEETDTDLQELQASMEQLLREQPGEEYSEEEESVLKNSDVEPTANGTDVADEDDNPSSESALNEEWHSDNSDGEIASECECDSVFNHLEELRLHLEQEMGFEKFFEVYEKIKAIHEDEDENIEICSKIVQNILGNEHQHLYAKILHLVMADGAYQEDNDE
Put plainly: Selectivity interaction (KinomeScan (DiscoverX)) EUB0000092b NEK1. The settings on record: at 10 µM.

Test [2] addresses T1, Serine/threonine-protein kinase Nek1 (Homo sapiens). Put plainly: Selectivity interaction (KinomeScan (DiscoverX)) EUB0000655a NEK1. The settings on record: at 10 µM.
Test [3] addresses Bone morphogenetic protein receptor type-1A (Homo sapiens, UniProt P36894). Briefly: Selectivity interaction (KinomeScan (DiscoverX)) EUB0000045b BMPR1A.
Test [4] has as its target T2, Serine/threonine-protein kinase BRSK2 (Homo sapiens) (UniProt Q8IWQ3).
T2 sequence (whole entry): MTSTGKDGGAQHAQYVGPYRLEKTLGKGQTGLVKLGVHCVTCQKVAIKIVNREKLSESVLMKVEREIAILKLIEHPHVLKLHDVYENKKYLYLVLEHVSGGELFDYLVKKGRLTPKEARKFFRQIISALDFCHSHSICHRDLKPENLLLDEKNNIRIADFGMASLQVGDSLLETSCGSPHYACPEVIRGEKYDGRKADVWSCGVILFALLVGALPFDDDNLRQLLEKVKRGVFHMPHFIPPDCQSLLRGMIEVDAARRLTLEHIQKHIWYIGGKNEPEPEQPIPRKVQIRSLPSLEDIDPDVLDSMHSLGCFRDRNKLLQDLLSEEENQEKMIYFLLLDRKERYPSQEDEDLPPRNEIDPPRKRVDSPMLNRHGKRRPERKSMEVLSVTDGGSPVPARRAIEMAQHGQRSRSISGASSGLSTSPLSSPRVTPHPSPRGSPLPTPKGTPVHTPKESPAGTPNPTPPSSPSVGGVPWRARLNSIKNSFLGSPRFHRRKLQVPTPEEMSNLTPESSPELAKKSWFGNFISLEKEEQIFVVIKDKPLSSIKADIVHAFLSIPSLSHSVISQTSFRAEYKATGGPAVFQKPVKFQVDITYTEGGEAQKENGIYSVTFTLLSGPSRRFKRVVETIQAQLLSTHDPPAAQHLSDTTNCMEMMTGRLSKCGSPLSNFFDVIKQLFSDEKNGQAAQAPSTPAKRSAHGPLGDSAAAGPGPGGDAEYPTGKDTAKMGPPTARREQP
Put plainly: Selectivity interaction (LanthaScreen Eu Kinase Binding Assay) EUB0001632a BRSK2. Particulars: at 10 µM. A general note: In TR-FRET formats the signal depends on donor and acceptor labels being close together.

For test [5], the target named is Serine/threonine-protein kinase PRP4 homolog (Homo sapiens) (UniProt Q13523). Put plainly: Selectivity interaction (KinomeScan (DiscoverX)) EUB0000607a PRPF4. The settings on record: at 10 µM.
Chain of Serine/threonine-protein kinase PRP4 homolog (Homo sapiens) (Q13523 whole entry): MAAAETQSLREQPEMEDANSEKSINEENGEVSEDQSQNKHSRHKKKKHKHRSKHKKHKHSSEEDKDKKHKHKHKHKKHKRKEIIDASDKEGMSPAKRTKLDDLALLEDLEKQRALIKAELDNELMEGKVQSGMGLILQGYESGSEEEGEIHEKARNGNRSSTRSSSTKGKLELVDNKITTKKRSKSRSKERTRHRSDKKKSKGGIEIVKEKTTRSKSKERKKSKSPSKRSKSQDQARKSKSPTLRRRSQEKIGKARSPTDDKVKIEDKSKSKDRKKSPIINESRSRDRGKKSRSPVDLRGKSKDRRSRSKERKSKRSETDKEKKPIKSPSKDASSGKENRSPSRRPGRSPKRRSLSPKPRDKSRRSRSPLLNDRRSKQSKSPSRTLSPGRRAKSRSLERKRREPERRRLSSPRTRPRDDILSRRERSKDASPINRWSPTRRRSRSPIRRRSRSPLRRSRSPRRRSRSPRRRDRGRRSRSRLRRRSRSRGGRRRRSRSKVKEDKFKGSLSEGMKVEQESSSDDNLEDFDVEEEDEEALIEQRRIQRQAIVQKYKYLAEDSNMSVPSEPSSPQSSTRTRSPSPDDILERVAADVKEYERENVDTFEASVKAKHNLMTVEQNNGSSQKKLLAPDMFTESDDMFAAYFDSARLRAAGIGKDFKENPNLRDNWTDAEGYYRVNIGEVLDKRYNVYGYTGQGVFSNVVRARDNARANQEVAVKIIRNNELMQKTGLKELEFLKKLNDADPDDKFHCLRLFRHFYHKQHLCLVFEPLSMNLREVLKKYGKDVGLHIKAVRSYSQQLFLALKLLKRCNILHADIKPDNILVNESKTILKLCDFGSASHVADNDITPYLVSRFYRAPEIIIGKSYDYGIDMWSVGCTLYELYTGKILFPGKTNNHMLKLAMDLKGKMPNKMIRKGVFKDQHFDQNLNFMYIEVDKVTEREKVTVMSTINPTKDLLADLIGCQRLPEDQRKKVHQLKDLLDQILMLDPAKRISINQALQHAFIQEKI
The target in test [6] is Cyclin-dependent kinase 9 (Homo sapiens, UniProt P50750). Briefly: Selectivity interaction (Kinase panel (Invitrogen)) EUB0000639a CDK9. The settings on record: at 200 nM.
Chain of Cyclin-dependent kinase 9 (P50750 whole entry): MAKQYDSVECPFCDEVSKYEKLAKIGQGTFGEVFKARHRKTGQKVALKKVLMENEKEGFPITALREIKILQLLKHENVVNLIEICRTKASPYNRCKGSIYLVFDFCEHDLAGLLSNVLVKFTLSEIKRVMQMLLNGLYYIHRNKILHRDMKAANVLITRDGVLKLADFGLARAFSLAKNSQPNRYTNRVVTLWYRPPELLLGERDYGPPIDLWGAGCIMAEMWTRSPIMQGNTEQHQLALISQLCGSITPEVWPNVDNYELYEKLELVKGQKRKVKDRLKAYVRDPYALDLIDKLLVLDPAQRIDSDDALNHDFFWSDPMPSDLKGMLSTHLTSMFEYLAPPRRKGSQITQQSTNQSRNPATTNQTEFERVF
In test [7] the target is Ribosomal protein S6 kinase alpha-1 (Homo sapiens, UniProt Q15418). Briefly: Selectivity interaction (ActivX KiNativ screen (kinase selectivity in THP-1 cell lysates)) EUB0000639a RPS6KA1. Particulars: lysate, at 1 µM. It is filed as subcellular.
Chain of Ribosomal protein S6 kinase alpha-1 (Q15418 whole entry): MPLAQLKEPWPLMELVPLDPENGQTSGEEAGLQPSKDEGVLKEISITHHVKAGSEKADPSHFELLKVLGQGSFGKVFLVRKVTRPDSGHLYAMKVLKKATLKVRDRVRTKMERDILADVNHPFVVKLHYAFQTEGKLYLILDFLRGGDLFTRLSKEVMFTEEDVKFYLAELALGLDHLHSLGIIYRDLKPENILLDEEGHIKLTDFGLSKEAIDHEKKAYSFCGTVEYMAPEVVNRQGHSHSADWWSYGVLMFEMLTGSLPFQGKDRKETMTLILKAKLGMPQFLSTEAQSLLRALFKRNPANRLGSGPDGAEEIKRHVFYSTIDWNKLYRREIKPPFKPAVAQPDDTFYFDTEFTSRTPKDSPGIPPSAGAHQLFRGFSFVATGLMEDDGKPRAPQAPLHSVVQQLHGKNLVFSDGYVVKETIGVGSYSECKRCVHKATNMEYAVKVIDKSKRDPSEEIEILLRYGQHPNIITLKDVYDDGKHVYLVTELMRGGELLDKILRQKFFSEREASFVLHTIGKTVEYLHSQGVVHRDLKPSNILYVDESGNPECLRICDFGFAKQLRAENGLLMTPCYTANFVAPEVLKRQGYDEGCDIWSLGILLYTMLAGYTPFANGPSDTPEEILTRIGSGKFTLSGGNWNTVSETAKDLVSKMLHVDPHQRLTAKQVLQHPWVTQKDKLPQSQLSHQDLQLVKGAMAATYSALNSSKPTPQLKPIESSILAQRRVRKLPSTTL
For test [8], the target named is Tyrosine-protein kinase Lyn (Homo sapiens, UniProt P07948). Put plainly: Selectivity interaction (ActivX KiNativ screen (kinase selectivity in THP-1 cell lysates)) EUB0000639a LYN. It is filed as subcellular. The settings on record: lysate, at 0.2 µM.
Chain of Tyrosine-protein kinase Lyn (P07948 2-512 limits assumed): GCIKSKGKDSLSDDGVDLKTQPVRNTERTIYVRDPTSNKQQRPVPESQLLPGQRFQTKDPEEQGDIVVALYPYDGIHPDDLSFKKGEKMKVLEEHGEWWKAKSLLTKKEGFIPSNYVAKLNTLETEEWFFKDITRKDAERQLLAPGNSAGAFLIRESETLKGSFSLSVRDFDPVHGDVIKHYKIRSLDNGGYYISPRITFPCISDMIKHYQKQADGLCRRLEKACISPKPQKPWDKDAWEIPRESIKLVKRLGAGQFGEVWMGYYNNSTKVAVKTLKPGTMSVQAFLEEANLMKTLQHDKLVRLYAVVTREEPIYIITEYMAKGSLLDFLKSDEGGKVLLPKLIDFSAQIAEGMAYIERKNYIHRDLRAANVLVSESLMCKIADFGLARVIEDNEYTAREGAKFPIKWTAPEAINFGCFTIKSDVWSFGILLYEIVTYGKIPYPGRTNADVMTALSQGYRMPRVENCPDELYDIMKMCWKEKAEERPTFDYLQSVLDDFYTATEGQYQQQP
Test [9] addresses Cyclin-dependent kinase 14 (Homo sapiens) (UniProt O94921). Briefly: Selectivity interaction (ActivX KiNativ screen (kinase selectivity in THP-1 cell lysates)) EUB0000639a CDK14. It is filed as subcellular. The settings on record: lysate, at 0.04 µM.
Test [10] addresses Vascular endothelial growth factor receptor 1 (Homo sapiens) (UniProt P17948). Put plainly: Selectivity interaction (Kinase panel (DSF assay)) EUB0001489b FLT1. (DSF heats the sample and reads unfolding from a dye or from intrinsic fluorescence.)

Chain of Bone morphogenetic protein receptor type-1A (P36894 whole entry): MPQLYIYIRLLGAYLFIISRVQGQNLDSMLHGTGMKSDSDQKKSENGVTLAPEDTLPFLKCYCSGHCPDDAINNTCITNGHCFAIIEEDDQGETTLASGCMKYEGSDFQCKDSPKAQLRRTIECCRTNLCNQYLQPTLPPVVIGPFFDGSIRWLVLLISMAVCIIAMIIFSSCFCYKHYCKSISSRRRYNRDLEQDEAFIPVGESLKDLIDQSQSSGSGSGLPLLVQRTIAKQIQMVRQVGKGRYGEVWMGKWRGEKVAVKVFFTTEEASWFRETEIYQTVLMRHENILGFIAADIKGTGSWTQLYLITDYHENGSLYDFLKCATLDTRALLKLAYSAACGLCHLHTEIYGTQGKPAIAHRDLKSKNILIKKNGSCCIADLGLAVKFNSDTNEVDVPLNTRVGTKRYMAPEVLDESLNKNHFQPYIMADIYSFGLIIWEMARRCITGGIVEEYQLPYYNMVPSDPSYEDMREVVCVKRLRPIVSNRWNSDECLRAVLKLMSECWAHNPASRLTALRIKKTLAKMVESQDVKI
Chain of Cyclin-dependent kinase 14 (Homo sapiens) (O94921 whole entry): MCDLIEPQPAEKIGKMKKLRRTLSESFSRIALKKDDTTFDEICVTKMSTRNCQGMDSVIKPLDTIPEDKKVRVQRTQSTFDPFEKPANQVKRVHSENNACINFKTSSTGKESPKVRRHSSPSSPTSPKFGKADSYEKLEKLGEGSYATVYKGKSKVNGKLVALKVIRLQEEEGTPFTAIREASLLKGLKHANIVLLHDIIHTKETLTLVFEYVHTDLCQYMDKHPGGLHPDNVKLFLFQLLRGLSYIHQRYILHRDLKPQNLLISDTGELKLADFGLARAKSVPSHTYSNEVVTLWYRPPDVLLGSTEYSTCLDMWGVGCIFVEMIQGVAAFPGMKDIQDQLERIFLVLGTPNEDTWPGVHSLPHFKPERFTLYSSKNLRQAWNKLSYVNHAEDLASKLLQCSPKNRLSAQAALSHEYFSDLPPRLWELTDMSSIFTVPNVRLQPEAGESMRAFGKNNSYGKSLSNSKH
Chain of Vascular endothelial growth factor receptor 1 (Homo sapiens) (P17948 whole entry): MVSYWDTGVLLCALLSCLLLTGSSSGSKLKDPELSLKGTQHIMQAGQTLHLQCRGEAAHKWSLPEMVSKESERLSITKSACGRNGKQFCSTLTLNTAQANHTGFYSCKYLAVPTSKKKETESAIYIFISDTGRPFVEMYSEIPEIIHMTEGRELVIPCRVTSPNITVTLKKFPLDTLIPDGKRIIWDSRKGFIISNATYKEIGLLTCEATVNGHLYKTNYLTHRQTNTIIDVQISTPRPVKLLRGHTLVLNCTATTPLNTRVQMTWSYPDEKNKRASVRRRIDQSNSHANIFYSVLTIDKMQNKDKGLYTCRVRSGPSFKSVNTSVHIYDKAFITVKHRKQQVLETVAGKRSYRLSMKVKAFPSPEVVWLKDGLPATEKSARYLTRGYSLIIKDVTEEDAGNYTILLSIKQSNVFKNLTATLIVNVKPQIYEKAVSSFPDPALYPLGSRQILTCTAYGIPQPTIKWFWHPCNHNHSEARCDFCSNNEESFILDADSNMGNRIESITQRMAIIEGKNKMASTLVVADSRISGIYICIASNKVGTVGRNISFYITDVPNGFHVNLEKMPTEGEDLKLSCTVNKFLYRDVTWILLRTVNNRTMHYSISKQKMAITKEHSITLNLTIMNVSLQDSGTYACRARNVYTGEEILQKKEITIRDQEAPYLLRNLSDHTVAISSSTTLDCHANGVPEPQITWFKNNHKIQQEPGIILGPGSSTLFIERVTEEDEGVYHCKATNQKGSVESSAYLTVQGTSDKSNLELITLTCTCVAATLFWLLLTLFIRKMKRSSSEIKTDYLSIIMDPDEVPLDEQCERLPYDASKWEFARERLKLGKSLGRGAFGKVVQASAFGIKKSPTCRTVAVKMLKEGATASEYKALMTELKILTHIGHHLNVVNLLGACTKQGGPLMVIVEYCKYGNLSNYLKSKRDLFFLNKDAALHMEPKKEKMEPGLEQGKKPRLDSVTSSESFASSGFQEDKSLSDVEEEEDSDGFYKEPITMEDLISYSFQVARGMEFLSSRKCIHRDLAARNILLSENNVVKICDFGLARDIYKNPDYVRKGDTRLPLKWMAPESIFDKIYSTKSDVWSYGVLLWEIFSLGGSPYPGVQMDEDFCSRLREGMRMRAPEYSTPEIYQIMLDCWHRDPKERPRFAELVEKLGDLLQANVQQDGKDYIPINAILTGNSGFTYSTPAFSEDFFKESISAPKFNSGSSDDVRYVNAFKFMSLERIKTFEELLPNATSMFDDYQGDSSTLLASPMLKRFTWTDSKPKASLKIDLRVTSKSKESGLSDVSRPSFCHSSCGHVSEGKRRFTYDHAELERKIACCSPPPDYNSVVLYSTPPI

Take `CCC(=O)N1CCN(c2ccc(-n3c(=O)ccc4cnc5ccc(-c6cnc7ccccc7c6)cc5c43)cc2C(F)(F)F)CC1`: in test [1], the % of control worked out at 89%. Regarding `CN(C)CCOc1ccc(-c2nc(-c3ccncc3)c(-c3ccc4c(c3)CC/C4=N\O)[nH]2)cc1`, the % of control in test [2] turned out to be 87%. Turning to `C=CC(=O)Nc1cc(-n2c(=O)ccc3cnc4ccc(-c5ccc(NS(C)(=O)=O)cc5)cc4c32)ccc1C`, the % of control in test [3] (at 1 µM) was found to be 84%; in [3] (at 10 µM), 100%.

With `Cn1cc(-n2cnc3c(NCc4nc5cc(Cl)c(Cl)cc5[nH]4)nc(N4CCOCC4)nc32)cn1`, the % of inhibition in test [4] is -172%. In [5], `CNC(=O)Nc1ccc(-c2nc(N3CC4CCC(C3)O4)c3cnn(C4CCC5(CC4)OCCO5)c3n2)cc1` showed a % of control of 70%. In the case of `CC[C@@H]1[C@H](F)C(=O)N[C@@H]1COc1nccc2cc(C(N)=O)c(OC)cc12` [ZIMLOVISERTIB], the % of inhibition worked out at 4.37% in test [6], 5.7% in [7], 0% in test [8] and 5.5% in [9].

The compound `CN1CCN(C(=O)c2ccc3cc2OCCOCCNc2ccn4ncc-3c4n2)CC1` registered a dTM in test [10] of 2.9 K.
